For the data set the following is noted: for Normal melting temperature: DTA.

± gives the expanded uncertainty stated by the source.

Regarding `c1ccc2c(c1)[nH]c1ccccc12` [9H-carbazole], the Normal melting temperature (Crystal) was determined as 243.89 ± 0.7 °C.
`c1ccc2c(c1)ccc1ccccc12` [phenanthrene]: the Normal melting temperature (Crystal 1) was found to be 98.56 ± 0.7 °C. In addition, the Triple point temperature (Crystal 2, DSC) was found to be 339.52 ± 0.93 K.

For the origin of these results see the NIST ThermoML archive (doi:10.1016/j.jct.2018.11.025).
